Assay results as given in patent US12558371B2, “Chondroitin sulfate polysaccharide, and semi-synthetic preparation method therefor and use thereof” (Institute of Materia Medica, Chinese Academy of Medical …, priority 2019, dated 2026).
Marks after values point to notes of the source that are not given here.

Legend:
[1] = test system: mouse ear acute swelling inflammation models caused by croton oil; experiment: Mouse ear acute swelling inflammation model caused by croton oil; assay type: in vivo, Balb/c mice; settings: 5 mg/kg, once a day for 3 d
Protocol: Anti-inflammatory effects of the glycans 1 to 5 prepared in Examples 1 to 5 were evaluated, specifically as follows:
(1) Test method: experiments for evaluating pharmacodynamic activities of CS compounds in mouse ear acute swelling inflammation models caused by croton oil
Animals: Balb/c mice, male (20 g to 22 g); 8 mice per group.
Groups: model group, positive drug (indometacin) group (5 mg/kg), natural extract (CS-E) group (200 mg/kg), and glycan groups (200 mg/kg, 100 mg/kg, and 50 mg/kg). Each of the positive drug and the compounds of CS series was formulated with sodium carboxymethylcellulose at a concentration of 0.5% by mass, and stored in a refrigerator at 4° C.
Administration and test: the mice were administered for 3 d, once a day. After the last administration, an induction rate on mouse ear swelling (%) and an inhibition rate on the ear swelling degree (%) by the compounds were calculated.
Statistical analysis: the experimental results were all expressed as “mean±standard deviation”. A statistical difference between two groups was calculated and analyzed by the t-test method. * represents p<0.05, and ** represents p<0.01.

[2] = test system: DSS-induced UC model mice; experiment: DSS-induced acute ulcerative colitis (UC) mouse model; assay type: in vivo, C57BL/6J mice
Protocol: Pharmacodynamics of the Glycan 3 (referred to as SEMI5) prepared in Example 3 was evaluated on anti-DSS models, specifically as follows:
C57BL/6J mice, male (18 g to 20 g), 6 mice per group, which were purchased from Beijing Huafukang Biotechnology Co., Ltd., with a license No.: SCXK (Beijing) 2014-0004.
(1) Normal control group (control group): intragastrically administered with sodium carboxymethylcellulose at a concentration of 0.5% by mass.
(2) UC (Ulcerative colitis) model group (model group): intragastrically administered with sodium carboxymethylcellulose at a concentration of 0.5% by mass.
(3) SASP (a positive drug salazosulfapyridine) group: Shanghai Xinyi Pharmaceutical Co., Ltd. (Batch No.: 036151102), 500 mg/kg, which was formulated with sodium carboxymethylcellulose at a concentration of 0.5% by mass and stored at 4° C., and intragastrically administered once a day.
(4) SEMI5-50 group: 50 mg/kg, which was formulated with distilled water and stored at 4° C., and intragastrically administered once a day.
(5) SEMI5-150 group: 150 mg/kg, which was formulated with distilled water and stored at 4° C., and intragastrically administered once a day.
3. Experimental method After being adaptively raised for one week in an SPF animal house (experimental animal use license No.: SYXK (Beijing) 2014-0023), the C57BL/6J mice were randomly divided into 5 groups according to the above protocols. Mice in the UC model group and administration groups were modeled with DSS (MP, CA9011-18-1, US) every day according to the modeling method for ulcerative colitis that had been established in the laboratory. The normal control group (control group) and UC model group (model group) were intragastrically administered with sodium carboxymethylcellulose at a concentration of 0.5% by mass once a day. The SASP group, SEMI5-50 group, and SEMI5-150 group were intragastrically administered once a day according to the experimental protocols in the section of “Experimental groups”. 7 d after modeling, typical UC pathological changes such as obvious listlessness, activity reduction, weight loss, watery stool, and hematochezia occurred in animals of the UC model group. The experiments were terminated, and animals in each group were sacrificed. Each of evaluation indexes related with colitis was detected (as shown in the subsequent section of experimental results). The anti-UC pharmacodynamic activity of each of the compounds was evaluated comprehensively.
The animals were evaluated by the DAI scores in terms of indexes such as animal body weight loss, stool property, hematochezia. The lower the DAI score was, the closer was the condition of the animal to a normal physiological status.

[3] = 500 mg/kg intragastrically once a day, 7 d

Q: What does the source list for `COc1ccc2c(c1)c(CC(=O)O)c(C)n2C(=O)c1ccc(Cl)cc1` [Indometacin, indometacin]?
A: Inhibition rate (%) ([1]; Table 2): 26.01%; Swelling rate (%) Mean ± SD ([1]; Table 2): 70.25 ± 20.97* %; Inhibition rate (%) ([1]; Table 3): 27.70%; Swelling rate (%) Mean ± SD ([1]; Table 3): 74.43 ± 20.97* %; Inhibition rate (%) ([1]; Table 4): 41.06%; Swelling rate (%) Mean ± SD ([1]; Table 4): 45.34 ± 6.92* %

Q: What does the source list for `O=C(O)c1cc(/N=N/c2ccc(S(=O)(=O)Nc3ccccn3)cc2)ccc1O` [SASP, salazosulfapyridine]?
A: Effect on body weight reduction vs. UC model group (in words) ([2]; 500 mg/kg): failed to effectively alleviate the body weight reduction; Effect on colon contracture vs. UC model group (in words) ([2]; 500 mg/kg): failed to effectively alleviate the colon contracture; Effect on disease complex index DAI scores vs. UC model group (in words) ([2]; 500 mg/kg): improved to some extent; Overall anti-UC activity (conclusion in words) ([2]; 500 mg/kg): exhibited a certain anti-UC activity; Colon contracture percentage (%) [2, 3]: 31.39%; Colon length (cm) [2, 3]: 5.29 ± 0.61 cm; DAI complex index inhibition rate (%) [2, 3]: 14.68* %; Disease activity index DAI [2, 3]: 3.10 ± 0.59; Body weight (g) X ± SD, End ([2]; 500 mg/kg intragastrically once a day, end, 7 d after modeling): 18.76 ± 1.09 g; Body weight (g) X ± SD, Start ([2]; 500 mg/kg intragastrically once a day, start of experiment): 21.97 ± 0.71 g
